Experimental data: US9186360B2, “Treatment of respiratory disorders using TRPA1 antagonists” (GLENMARK PHARMACEUTICALS S.A., priority 2011, dated 2015)

Key:
Type in all cases: cell-based
[1] = molecular target: human TRPV3 (Homo sapiens (Human), UniProt Q8NET8); experiment: Radiometric calcium selectivity assay, CHO cells expressing human TRPV3 (2-aminoethoxydiphenyl borate); settings: read-out: IC50 values hTRPV3
Experimental: (§1) For selectivity screening, CHO cells stably expressing human TRPV1, human TRPV3, human TRPV4, or human TRPM8 were generated in-house and maintained in DMEM F-12 supplemented with 10% FBS and G418. All the cell types were cultured at 37° C. in humidified air containing 5% CO2. Radiometric calcium assay was performed as described above with some minor modifications. Assay was carried out in total volume of 200 μl at 30° C. (for TRPV1), 32° C. (for TRPV3) and 25° C. (for TRPV4 and TRPM8). Agonists used for selectivity screening of the different TRPs are: Capsaicin for TRPV1,2-aminoethoxydiphenyl borate for TRPV3, 4α-phorbol 12,13-didecanoate for TRPV4 and Icilin for TRPM8. After 2-5 minutes of agonist treatment, drug was washed and lysed in lysis buffer as mentioned above. Radioactivity in the lysate was measured in Packard Top count after addition of liquid scintillant.

[2] = molecular target: human TRPV4 (Homo sapiens (Human), UniProt Q9HBA0); experiment: Radiometric calcium selectivity assay, CHO cells expressing human TRPV4 (4α-phorbol 12,13-didecanoate); settings: read-out: IC50 values hTRPV4
Chain of human TRPV4 (Q9HBA0 whole entry): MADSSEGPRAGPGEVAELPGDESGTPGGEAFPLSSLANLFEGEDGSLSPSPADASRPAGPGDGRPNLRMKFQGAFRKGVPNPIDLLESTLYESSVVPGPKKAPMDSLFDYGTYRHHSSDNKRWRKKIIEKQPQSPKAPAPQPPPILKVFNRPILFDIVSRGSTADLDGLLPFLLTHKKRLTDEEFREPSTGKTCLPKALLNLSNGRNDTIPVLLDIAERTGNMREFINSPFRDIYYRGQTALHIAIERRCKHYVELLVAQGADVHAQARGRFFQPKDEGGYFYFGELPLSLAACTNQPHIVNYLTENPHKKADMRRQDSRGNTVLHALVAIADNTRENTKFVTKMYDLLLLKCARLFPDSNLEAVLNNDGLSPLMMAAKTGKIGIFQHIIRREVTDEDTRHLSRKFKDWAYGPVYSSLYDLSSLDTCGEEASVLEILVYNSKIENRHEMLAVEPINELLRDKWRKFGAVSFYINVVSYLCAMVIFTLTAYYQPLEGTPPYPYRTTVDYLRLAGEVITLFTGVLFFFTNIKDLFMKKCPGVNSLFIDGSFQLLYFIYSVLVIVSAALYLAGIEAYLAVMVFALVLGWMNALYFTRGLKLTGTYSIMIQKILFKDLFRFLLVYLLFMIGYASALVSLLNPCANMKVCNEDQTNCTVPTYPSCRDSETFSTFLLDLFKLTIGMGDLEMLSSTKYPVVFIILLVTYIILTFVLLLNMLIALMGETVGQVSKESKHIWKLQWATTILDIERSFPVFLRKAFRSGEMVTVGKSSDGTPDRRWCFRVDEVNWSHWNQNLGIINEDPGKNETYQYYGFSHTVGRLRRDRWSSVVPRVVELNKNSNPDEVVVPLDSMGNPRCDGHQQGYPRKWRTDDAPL
Experimental: as §1

[3] = molecular target: human TRPV1 (Homo sapiens (Human), UniProt Q8NER1); experiment: Radiometric calcium selectivity assay, CHO cells expressing human TRPV1 (capsaicin); settings: read-out: IC50 values hTRPV1
Chain of human TRPV1 (Q8NER1 whole entry): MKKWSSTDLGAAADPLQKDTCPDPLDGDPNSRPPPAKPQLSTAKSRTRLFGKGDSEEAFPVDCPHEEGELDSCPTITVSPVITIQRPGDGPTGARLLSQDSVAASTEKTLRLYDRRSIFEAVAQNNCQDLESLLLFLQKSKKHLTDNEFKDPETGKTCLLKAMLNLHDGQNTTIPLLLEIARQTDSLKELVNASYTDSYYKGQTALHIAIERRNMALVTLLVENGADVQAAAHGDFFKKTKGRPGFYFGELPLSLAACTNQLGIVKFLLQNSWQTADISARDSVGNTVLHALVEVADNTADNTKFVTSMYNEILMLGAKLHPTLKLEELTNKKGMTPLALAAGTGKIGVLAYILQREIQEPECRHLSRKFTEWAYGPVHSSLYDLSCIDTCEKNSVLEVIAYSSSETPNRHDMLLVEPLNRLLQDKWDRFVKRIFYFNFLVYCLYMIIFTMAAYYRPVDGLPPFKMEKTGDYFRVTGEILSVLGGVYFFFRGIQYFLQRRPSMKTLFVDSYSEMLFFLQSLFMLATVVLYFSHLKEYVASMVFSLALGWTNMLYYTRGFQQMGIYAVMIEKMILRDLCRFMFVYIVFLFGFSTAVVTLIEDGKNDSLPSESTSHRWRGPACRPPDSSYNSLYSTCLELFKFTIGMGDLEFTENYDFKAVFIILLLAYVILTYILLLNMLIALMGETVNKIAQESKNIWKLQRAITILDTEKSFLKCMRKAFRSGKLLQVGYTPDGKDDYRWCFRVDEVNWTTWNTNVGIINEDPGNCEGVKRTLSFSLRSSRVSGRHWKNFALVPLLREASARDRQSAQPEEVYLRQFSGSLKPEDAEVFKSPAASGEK
Experimental: as §1

[4] = molecular target: human TRPA1 (Homo sapiens (Human), UniProt O75762); experiment: 45Calcium uptake assay, AITC induced, human TRPA1 expressing CHO cells; settings: AITC 30 micromolar, read-out: IC50 values hTRPA1
Chain of human TRPA1 (O75762 whole entry): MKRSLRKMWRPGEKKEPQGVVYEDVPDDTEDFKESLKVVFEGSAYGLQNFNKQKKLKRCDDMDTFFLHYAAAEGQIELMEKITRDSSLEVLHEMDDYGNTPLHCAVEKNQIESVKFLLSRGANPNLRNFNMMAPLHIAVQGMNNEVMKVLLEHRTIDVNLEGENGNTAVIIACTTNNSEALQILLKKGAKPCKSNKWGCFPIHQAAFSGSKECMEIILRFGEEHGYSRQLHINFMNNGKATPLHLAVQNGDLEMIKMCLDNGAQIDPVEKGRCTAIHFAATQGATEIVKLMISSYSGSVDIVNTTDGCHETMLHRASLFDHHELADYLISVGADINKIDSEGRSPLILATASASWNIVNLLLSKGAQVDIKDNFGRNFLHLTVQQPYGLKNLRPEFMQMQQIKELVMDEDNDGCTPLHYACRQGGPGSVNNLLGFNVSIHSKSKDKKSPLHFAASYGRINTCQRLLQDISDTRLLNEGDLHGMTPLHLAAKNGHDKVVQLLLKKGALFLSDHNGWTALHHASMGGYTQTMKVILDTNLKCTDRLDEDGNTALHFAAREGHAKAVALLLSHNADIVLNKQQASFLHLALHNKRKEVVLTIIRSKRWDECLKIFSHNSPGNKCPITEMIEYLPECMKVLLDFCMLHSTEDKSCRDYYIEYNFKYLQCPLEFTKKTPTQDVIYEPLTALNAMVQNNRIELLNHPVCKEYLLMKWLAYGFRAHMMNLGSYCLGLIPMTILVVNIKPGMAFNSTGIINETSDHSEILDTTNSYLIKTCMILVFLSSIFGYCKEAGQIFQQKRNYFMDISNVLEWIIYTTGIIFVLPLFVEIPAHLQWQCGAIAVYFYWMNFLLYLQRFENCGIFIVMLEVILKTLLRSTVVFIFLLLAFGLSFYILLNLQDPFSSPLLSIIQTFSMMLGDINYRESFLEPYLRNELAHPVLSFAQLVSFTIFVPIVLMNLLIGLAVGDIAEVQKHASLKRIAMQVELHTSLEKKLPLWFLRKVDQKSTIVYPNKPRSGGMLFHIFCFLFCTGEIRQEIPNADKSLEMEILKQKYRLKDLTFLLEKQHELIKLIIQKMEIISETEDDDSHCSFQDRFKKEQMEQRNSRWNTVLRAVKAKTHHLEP
Experimental: As contemplated herein, the IC50 value is measured by the following method. The inhibition of TRPA1 receptor activation is measured as inhibition of allylisothiocyanate (AITC) induced cellular uptake of radioactive calcium. Test solution of test compound is prepared in a suitable solvent using appropriate method. Human TRPA1 expressing CHO cells are grown in suitable medium. Cells are treated with test compounds followed by addition of AITC. Cells are washed and lysed. Radioactivity in the lysate is measured in Packard Top count after addition of liquid scintillant. The concentration response curves for compounds are plotted as a % of maximal response obtained in the absence of test antagonist, and the IC50 values are calculated from such concentration response curve by nonlinear regression analysis using GraphPad PRISM software.
The illustrative TRPA1 antagonists of the present invention were screened for TRPA1 activity according to a modified procedure described in Tóth, A. et al., Life Sciences 2003, 73, 487-498. The screening of the compounds can be carried out by other methods and procedures known to persons skilled in the art.
Screening for TRPA1 Antagonist Using the 45Calcium Uptake Assay:
The inhibition of TRPA1 receptor activation was measured as inhibition of allylisothiocyanate (AITC) induced cellular uptake of radioactive calcium. Test compounds were dissolved in DMSO to prepare 10 mM stock solution and then diluted using plain medium with 0.1% BSA and 1.8 mM CaCl2 to get desired concentration. Final concentration of DMSO in the reaction was 0.5% (v/v). Human TRPA1 expressing CHO cells were grown in F-12 DMEM medium with 10% FBS, 1% penicillin-streptomycin solution, and 400 μg/ml of G-418. Cells were seeded 24 h prior to the assay in 96 well plates so as to get ˜50,000 cells per well on the day of experiment. Cells were treated with test compounds for 10 min followed by addition of AITC at a final concentration of 30 micromolar and 5 μCi/ml 45Ca+2 for 3 min at 25° C. Cells were washed and lysed using buffer containing 1% Triton X-100, 0.1% deoxycholate and 0.1% SDS. Radioactivity in the lysate was measured in Packard Top count after addition of liquid scintillant.
Concentration response curves were plotted as a % of maximal response obtained in the absence of test antagonist. IC50 value was calculated from concentration response curve by nonlinear regression analysis using GraphPad PRISM software.

[5] = molecular target: human TRPM8 (Homo sapiens (Human), UniProt Q7Z2W7); experiment: Radiometric calcium selectivity assay, CHO cells expressing human TRPM8 (icilin); settings: read-out: IC50 values hTRPM8
Chain of human TRPM8 (Q7Z2W7 whole entry): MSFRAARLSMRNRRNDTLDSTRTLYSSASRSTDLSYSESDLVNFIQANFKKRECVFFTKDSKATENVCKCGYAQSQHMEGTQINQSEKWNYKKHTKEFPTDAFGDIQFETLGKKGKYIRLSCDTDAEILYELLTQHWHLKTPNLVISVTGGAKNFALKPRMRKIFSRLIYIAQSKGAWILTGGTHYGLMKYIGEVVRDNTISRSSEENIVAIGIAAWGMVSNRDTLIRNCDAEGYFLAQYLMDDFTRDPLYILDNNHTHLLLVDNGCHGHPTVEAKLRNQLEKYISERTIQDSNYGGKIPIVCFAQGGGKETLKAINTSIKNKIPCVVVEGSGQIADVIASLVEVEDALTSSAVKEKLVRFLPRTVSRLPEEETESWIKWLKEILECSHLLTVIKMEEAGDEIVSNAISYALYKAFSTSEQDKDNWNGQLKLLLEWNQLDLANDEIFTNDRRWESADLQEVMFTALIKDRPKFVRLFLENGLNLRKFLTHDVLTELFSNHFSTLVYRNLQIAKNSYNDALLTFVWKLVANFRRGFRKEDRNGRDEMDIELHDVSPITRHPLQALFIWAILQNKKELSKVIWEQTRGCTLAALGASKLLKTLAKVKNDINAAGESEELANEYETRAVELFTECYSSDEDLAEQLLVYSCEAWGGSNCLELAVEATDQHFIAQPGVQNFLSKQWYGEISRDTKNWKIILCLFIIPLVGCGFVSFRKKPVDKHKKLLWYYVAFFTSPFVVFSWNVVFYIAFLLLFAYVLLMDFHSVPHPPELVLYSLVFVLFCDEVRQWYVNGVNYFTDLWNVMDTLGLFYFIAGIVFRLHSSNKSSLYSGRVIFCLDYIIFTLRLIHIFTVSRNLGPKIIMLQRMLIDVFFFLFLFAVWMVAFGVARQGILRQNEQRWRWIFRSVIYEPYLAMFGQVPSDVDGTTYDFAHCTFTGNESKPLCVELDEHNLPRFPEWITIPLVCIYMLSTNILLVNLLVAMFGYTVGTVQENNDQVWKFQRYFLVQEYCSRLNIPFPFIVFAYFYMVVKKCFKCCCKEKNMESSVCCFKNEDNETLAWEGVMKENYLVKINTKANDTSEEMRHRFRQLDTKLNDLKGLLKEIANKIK
Experimental: as §1

Chain of human TRPV3 (Q8NET8 whole entry): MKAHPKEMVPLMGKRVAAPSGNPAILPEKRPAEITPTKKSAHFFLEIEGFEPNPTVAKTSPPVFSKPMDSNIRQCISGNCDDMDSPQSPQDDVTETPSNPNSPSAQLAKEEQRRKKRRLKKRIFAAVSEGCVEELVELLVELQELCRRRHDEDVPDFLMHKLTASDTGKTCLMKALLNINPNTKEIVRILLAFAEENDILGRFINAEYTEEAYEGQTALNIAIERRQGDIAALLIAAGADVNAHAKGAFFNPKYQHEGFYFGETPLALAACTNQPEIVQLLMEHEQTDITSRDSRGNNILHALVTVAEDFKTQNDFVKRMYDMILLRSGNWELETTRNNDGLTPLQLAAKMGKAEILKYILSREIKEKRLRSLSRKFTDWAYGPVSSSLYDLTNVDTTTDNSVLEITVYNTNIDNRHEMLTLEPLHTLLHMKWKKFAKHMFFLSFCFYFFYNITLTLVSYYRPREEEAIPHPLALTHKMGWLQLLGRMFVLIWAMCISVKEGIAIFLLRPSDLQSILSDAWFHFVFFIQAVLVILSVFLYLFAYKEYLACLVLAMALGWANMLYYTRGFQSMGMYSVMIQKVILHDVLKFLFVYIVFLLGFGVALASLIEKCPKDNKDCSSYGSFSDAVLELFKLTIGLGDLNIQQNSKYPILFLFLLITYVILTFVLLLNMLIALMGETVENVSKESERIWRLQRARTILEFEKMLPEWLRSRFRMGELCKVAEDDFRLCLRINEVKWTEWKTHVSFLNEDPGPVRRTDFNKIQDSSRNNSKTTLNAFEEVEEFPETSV

Row | SMILES | IC50 [1] [nM] | IC50 [2] [nM] | IC50 [3] [nM] | IC50 [4] [nM] | IC50 [5] [nM]
1 | CN1C(=O)c2c(ncn2CC(=O)Nc2nc(-c3ccc(Br)cc3)cs2)N2CCN=C12 [Compound 1] | > 10000 | > 10000 | > 10000 | 921 | > 10000
2 | CN1C(=O)c2c(ncn2CC(=O)Nc2nc(-c3ccc(C(C)(C)C)cc3)cs2)N2CCN=C12 [Compound 2] | > 10000 | 3840 | > 10000 | 382 | > 10000
3 | Cn1c(=O)c2c(CC(=O)Nc3nc(-c4ccc(Br)cc4)cs3)cccc2n(C)c1=O [Compound 3] | > 10000 | 969 | > 10000 | 73.3 | > 10000
4 | Cn1c(=O)c2c(CC(=O)Nc3nc(-c4ccc(Cl)c(Cl)c4)cs3)cccc2n(C)c1=O [Compound 4] | > 10000 | > 1000 | > 10000 | 98.3 | > 10000
5 | Cn1c(=O)c2c(CC(=O)Nc3nc(-c4ccc(I)cc4)cs3)cccc2n(C)c1=O [Compound 5] | > 10000 | > 1000 | > 10000 | 66.3 | > 10000
6 | Cc1ccc(-c2csc(NC(=O)Cc3cccc4c3c(=O)n(C)c(=O)n4C)n2)cc1 [Compound 6] | > 10000 | > 1000 | > 10000 | 97.4 | > 10000
7 | Cn1c(=O)c2c(CC(=O)Nc3nc(-c4cccc(C(F)(F)F)c4)cs3)cccc2n(C)c1=O [Compound 7] | 2100 | 1870 | > 10000 | 47.4 | > 10000
8 | Cn1c(=O)c2c(CC(=O)Nc3ccn(-c4ccc(Cl)cc4)n3)cccc2n(C)c1=O [Compound 8] | > 10000 | > 1000 | > 10000 | 55 | > 10000
9 | Cn1c(=O)c2c(CC(=O)Nc3nc(-c4cccc(Cl)c4)cs3)cccc2n(C)c1=O [Compound 9] | > 1000 | > 1000 | > 10000 | 102 | > 10000
10 | Cn1c(=O)c2c(CC(=O)Nc3nc(-c4ccc(C5CCCCC5)cc4)cs3)cccc2n(C)c1=O [Compound 10] | > 10000 | > 10000 | > 10000 | 46.7 | > 10000
11 | Cn1c(=O)c2c(CC(=O)Nc3nc(-c4ccc(C(F)(F)F)cc4)cs3)cccc2n(C)c1=O [Compound 11] | > 10000 | 1500 | > 10000 | 46.3 | > 10000
12 | Cn1c(=O)c2c(CC(=O)Nc3nc(-c4ccc(C(C)(C)C)cc4)cs3)cccc2n(C)c1=O [Compound 12] | > 10000 | > 1000 | > 10000 | 51.7 | > 10000
13 | Cn1c(=O)c2c(CC(=O)Nc3nc(-c4ccc(F)cc4F)cs3)cccc2n(C)c1=O [Compound 13] | > 1000 | 2800 | > 10000 | 48.2 | > 10000
14 | CC(C)c1ccc(-c2csc(NC(=O)Cc3cccc4c3c(=O)n(C)c(=O)n4C)n2)cc1 [Compound 14] | > 1000 | > 1000 | > 10000 | 60.4 | > 10000
15 | Cn1c(=O)c2c(CC(=O)Nc3nc(-c4ccc(F)c(Cl)c4)cs3)cccc2n(C)c1=O [Compound 15] | > 1000 | > 1000 | > 10000 | 53.6 | > 10000
16 | CCc1ccc(-c2csc(NC(=O)Cc3cccc4c3c(=O)n(C)c(=O)n4C)n2)cc1 [Compound 17] | > 10000 | > 1000 | > 10000 | 56 | > 10000
17 | Cn1c(=O)c2c(CC(=O)Nc3nc(-c4ccc(C(F)(F)F)c(F)c4)cs3)cccc2n(C)c1=O [Compound 18] | > 10000 | 1320 | > 10000 | 13.4 | > 10000

Row | SMILES | IC50 [1] [nM] | IC50 [2] [nM] | IC50 [3] [nM] | IC50 [4] [nM] | IC50 [5] [nM]
18 | Cn1c(=O)c2c(CC(=O)Nc3nc(-c4ccc(C(F)(F)F)cc4F)cs3)cccc2n(C)c1=O [Compound 19] | > 1000 | 1630 | > 10000 | 26.1 | > 10000
19 | Cn1c(=O)c2c(CC(=O)Nc3nc(-c4ccc(F)c(C(F)(F)F)c4)cs3)cccc2n(C)c1=O [Compound 20] | > 1000 | 1670 | > 10000 | 20.1 | > 10000
20 | Cn1c(=O)c2c(CC(=O)Nc3nc(-c4ccc(Cl)c(C(F)(F)F)c4)cs3)cccc2n(C)c1=O [Compound 21] | > 10000 | 520 | > 1000 | 48.2 | > 10000
21 | CC(C)CCOc1ccc(-c2csc(NC(=O)Cc3cccc4c3c(=O)n(C)c(=O)n4C)n2)cc1 [Compound 22] | > 10000 | > 1000 | > 10000 | 79.8 | > 10000
22 | CC(C)COc1ccc(-c2csc(NC(=O)Cc3cccc4c3c(=O)n(C)c(=O)n4C)n2)cc1 [Compound 23] | > 10000 | > 1000 | > 10000 | 43.9 | > 10000
23 | Cn1c(=O)c2c(CC(=O)Nc3nc(-c4cc(Cl)ccc4F)cs3)cccc2n(C)c1=O [Compound 24] | > 1000 | > 10000 | > 10000 | 138 | > 10000
24 | Cn1c(=O)c2c(CC(=O)Nc3nc(-c4cccc(Cl)c4F)cs3)cccc2n(C)c1=O [Compound 25] | > 1000 | > 1000 | > 10000 | 58.5 | > 10000
25 | Cn1c(=O)c2c(CC(=O)Nc3nc(-c4cccc(OC(F)(F)F)c4)cs3)cccc2n(C)c1=O [Compound 26] | > 1000 | > 1000 | > 10000 | 47.9 | > 10000
26 | Cn1c(=O)c2c(CC(=O)Nc3nc(-c4cccc(F)c4F)cs3)cccc2n(C)c1=O [Compound 27] | > 10000 | > 10000 | > 10000 | 65.5 | > 10000
27 | Cn1c(=O)c2c(CC(=O)Nc3nc(-c4ccc(C(F)(F)F)c(F)c4F)cs3)cccc2n(C)c1=O [Compound 28] | > 1000 | 903 | > 10000 | 6.49 | > 10000
28 | CCC(=N\O)/C(C)=C/c1ccc(F)cc1 [Compound 89] | > 10000 | > 10000 | > 10000 |  | > 10000
29 | Cn1c(=O)c2c(CC(=O)Nc3nc(-c4ccc(C(F)(F)F)c(F)c4)cs3)c(Cl)oc2n(C)c1=O [Compound 99] |  | 1470 |  | 5.06 | 
30 | Cn1c(=O)c2c(CC(=O)Nc3nc(-c4cc(F)cc(C(F)(F)F)c4)cs3)c(Cl)oc2n(C)c1=O [Compound 100] |  | > 10000 |  | 5.15 | 
31 | Cn1c(=O)c2c(CC(=O)Nc3nc(-c4ccc(F)c(C(F)(F)F)c4F)cs3)c(Cl)oc2n(C)c1=O [Compound 101] |  | > 1000 |  | 10.1 | 
32 | Cn1c(=O)c2c(CC(=O)Nc3nc(-c4ccc(OC(F)(F)F)c(F)c4)cs3)c(Cl)oc2n(C)c1=O [Compound 102] |  | 1350 |  | 7.67 | 
33 | Cn1c(=O)c2c(CC(=O)Nc3nc(-c4ccc(F)c(OC(F)(F)F)c4)cs3)c(Cl)oc2n(C)c1=O [Compound 103] |  | 4020 |  | 27.4 | 
34 | Cn1c(=O)c2c(CC(=O)Nc3nc(-c4ccc(C(F)(F)F)c(F)c4F)cs3)c(Cl)oc2n(C)c1=O [Compound 104] |  | 1810 |  | 7.58 | 
